Measured values from paper PMC3608422 (Xenobiotica; the fate of foreign compounds in biological …, 2011).
Like-named read-outs stand apart in the source and are kept apart here.

Key:
[1] = target: CB1Rs; conditions: read-out: affinity for CB1Rs; ref Mechoulam et al. 1995; cited from earlier work
[2] = target: CB2Rs; conditions: read-out: affinity for CB2Rs; ref Mechoulam et al. 1995; cited from earlier work
[3] = target: mouse brain CB1Rs (mCB1Rs) (Mus musculus, UniProt P47746); assay: biochemical; format: binding; conditions: for Selectivity: mCB1 versus hCB2 binding; for hCB2/mCB1 (Ki ratio): ratio of Ki hCB2 to Ki mCB1
[4] = target: human CB2Rs (hCB2Rs) stably expressed in CHO cells (Homo sapiens, UniProt P34972); assay: biochemical; format: binding
[5] = target: mCB1Rs (Mus musculus, UniProt P47746); format: biochemical; conditions: for effect on basal G-protein activity ([35S]GTPγS binding): 10 µM
[6] = system: UGT1A1
[7] = system: UGT1A9
[8] = co-administration with 10 µM of the compound
[9] = co-administration with 30 µM of the compound

Chain of human CB2Rs (hCB2Rs) stably expressed in CHO cells (P34972 whole entry): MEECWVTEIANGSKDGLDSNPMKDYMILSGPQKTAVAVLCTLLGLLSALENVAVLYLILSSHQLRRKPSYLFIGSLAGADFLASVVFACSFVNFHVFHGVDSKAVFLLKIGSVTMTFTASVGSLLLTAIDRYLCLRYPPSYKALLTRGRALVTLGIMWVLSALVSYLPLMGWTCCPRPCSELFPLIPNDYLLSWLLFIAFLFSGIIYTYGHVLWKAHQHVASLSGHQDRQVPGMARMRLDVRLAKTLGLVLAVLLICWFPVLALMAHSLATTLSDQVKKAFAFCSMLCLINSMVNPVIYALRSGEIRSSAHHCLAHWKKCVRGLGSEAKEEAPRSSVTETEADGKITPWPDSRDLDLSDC
Chain of mCB1Rs (P47746 whole entry): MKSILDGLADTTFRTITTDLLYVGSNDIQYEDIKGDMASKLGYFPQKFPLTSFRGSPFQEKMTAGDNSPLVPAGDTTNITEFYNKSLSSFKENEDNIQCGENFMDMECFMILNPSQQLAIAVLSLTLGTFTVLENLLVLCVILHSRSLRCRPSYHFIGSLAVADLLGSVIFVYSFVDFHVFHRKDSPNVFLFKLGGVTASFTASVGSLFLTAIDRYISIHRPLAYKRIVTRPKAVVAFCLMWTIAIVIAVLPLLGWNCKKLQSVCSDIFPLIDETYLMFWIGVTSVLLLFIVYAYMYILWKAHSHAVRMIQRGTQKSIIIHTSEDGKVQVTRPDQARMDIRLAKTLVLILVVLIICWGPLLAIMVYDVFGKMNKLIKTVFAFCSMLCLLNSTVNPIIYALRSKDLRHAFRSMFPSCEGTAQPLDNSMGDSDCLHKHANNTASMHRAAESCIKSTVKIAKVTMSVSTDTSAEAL
Chain of mouse brain CB1Rs (mCB1Rs) (P47746 whole entry): as above

Row | SMILES | Ki [3] [µM] | Selectivity [3] | hCB2/mCB1 (Ki ratio) [3] | Ki [4] [µM] | effect on basal G-protein activity ([35S]GTPγS binding) ([5]; mouse brain membranes) | also measured
1 | CCCCC/C=C\C/C=C\C/C=C\C/C=C\CCCC(=O)OC(CO)CO [2-arachidonoylglycerol] | – | – | – | – | – | Ki [1]: ~0.5 µM; Ki [2]: ~1.5 µM
2 | Oc1ccc(/C=C/c2cc(O)cc(O)c2)cc1 [tRes, trans-3,5,4′-trihydroxystilbene, reference compound] | 14.3 ± 1.6 | – | – | – | – | –
3 | CC(C)C=Cc1c(O)cc(/C=C/c2ccc(O)c(O)c2)cc1O [tA1, trans-4-(3-methyl-1-butenyl)-3,5,3′,4′-tetrahydroxystilbene] | 5.6 ± 0.4 | Non-selective | 2.3 | 12.6 ± 1.7 | markedly reduce | ED50 of CB1R agonist CP-55,940 to activate G-proteins on co-administration [5, 8]: 0.028 µM; fold increase (shift-to-the-right) in ED50 of CP-55,940 [5, 8]: 7 fold; maximal response produced by CP-55,940 on co-administration [5, 8]: 0.22 ± 0.04 pmol/mg protein; attenuation by O-2050 of the reduction of basal G-protein activity ([5]; compound 10 µM co-incubated with neutral CB1R antagonist O-2050 1 µM): did not significantly attenuate; glucuronidation by UGT1A1 [6]: no visible glucuronidation; concentration at which substrate inhibition is seen [7]: > 500 µM
4 | CC(C)C=Cc1c(O)cc(/C=C/c2ccc(O)cc2)cc1O [tA3, trans-4-(3-methyl-1-butenyl)-3,5,4′-trihydroxystilbene] | 17.5 ± 3.4 | Non-selective | 0.6 | 11.3 ± 0.6 | have little effect | ED50 of CB1R agonist CP-55,940 to activate G-proteins on co-administration [5, 9]: 0.127 µM; fold increase (shift-to-the-right) in ED50 of CP-55,940 [5, 9]: 30 fold
5 | Oc1cc(O)cc(/C=C/c2ccc(O)c(O)c2)c1 [tPice, trans 3,5,3′,4′-tetrahydroxystilbene, reference compound] | 11.7 ± 1 | CB1 | 9.7 | 114 ± 7.8 | markedly reduce | –
6 | CC1=CC[C@@H]2[C@@H](C1)c1c(O)cc(CC#CCCCNS(C)(=O)=O)cc1OC2(C)C [O-2050, reference compound] | – | – | – | – | – | effect on G-protein activity ([35S]GTPγS binding) ([5]; mouse brain membranes, 1 µM): produced no effect
